Measurements published in publication PMC3523717 (Angewandte Chemie (International ed. in English), 2012).

Molecular target: T1, Aurora kinase A (AKA) (Homo sapiens, UniProt O14965)
T1 sequence (O14965 1-403): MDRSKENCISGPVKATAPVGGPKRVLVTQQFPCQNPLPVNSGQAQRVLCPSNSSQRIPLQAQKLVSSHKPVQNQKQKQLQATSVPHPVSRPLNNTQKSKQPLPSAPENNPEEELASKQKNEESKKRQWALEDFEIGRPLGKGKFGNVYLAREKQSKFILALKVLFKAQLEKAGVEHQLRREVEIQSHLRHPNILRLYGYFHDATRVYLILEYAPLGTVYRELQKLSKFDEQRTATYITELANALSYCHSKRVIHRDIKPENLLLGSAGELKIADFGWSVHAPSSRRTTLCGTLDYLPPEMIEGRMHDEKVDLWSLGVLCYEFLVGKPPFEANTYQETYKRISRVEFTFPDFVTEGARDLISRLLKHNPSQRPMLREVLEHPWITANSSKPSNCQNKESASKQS
Assay: kinase activity assay
Assay type: biochemical

Substance MLN8054-TCO [compound 13] has an IC50 of 61.8 nM.
